Among the data in the supplement of paper PMC4862054 are normalised viability values, retold here.

Values joined by “and” are separate entries in the source; they are usually repeats but may differ in a detail not shown here. Equal values may be shown once.

What all share (assay): normalised viability (% of control), CellTiter-Blue; higher = more viable cells (about 100 = DMSO control)
Conditions in all cases: incubation time: 72 h
In general terms: Resazurin is reduced to fluorescent resorufin, in cell work by metabolically active cells.

One test has as its system BT-474. Summed up:
(§1)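 Compound dissolved in 5 µl medium was pre-loaded into 384-well plates, and breast cancer cell lines in 20 µl suspension were seeded on top and incubated 72 h. After adding 2.5 µl CellTiter-Blue reagent for 2 h at 37 °C, fluorescence was read at 560/590 nm. Plates were normalised to vehicle (100) and a positive kill control (0), with Z'-factor quality control. Each value is normalised viability at a single listed concentration from the series.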

The subject of a further test is CAL-120. Summed up: as §1
The next test concerns CAL-148. The essentials: as §1
In another test the test system is CAL-51. The essentials:
as §1

A further test concerns CAL-85-1. Summed up: as §1
The next test has as its system DU-4475. The essentials: as §1
For a further test, the system named is HCC1599. Summed up:
as §1

Another test relates to HCC1937. Summed up: as §1
The next test concerns HDQ-P1. The essentials: as §1
The subject of a further test is Hs578T. Summed up: as §1
A further test concerns MDA-MB-231. Summed up: as §1
In a further test the test system is MDA-MB-436. The essentials: as §1
A further test relates to MDA-MB-453. Summed up:
as §1

The next test relates to SK-BR-3. The essentials: as §1

For `O=C(NC[C@H](O)CO)c1ccncc1Nc1ccc(I)cc1F`, the normalised viability with BT-474 (100 nM) is 110%; in the test on CAL-120 (100 nM), 85.1%; with CAL-148 (10 nM), 80.3%; with CAL-51 (10 nM) it was 99.2%; in the test on CAL-85-1 (10 nM), 90.6%; in the test with DU-4475 (10 nM) it was 63.7%. In addition, the normalised viability stood at 101% in the test with HCC1599 (100 nM); 88.7% with HCC1937 (100 nM); 97.9% with HDQ-P1 (10 nM); 79.8% in the test on Hs578T (100 nM); 44.8% with MDA-MB-231 (100 nM); 114% in the test with MDA-MB-436 (100 nM). The values for the normalised viability in the test with MDA-MB-453 (10 nM) and with SK-BR-3 (100 nM) were 88.7% and 78.1%, respectively.

`Nc1nc(=O)c2c([nH]1)NCC(CNc1ccc(C(=O)N[C@@H](CCC(=O)O)C(=O)O)cc1)N2C=O` (mixture of isomers) [Folinic acid]: the normalised viability in the test on BT-474 (9.9 nM) was found to be 121%; in the test on CAL-120 (9.9 nM) it was 111%; with CAL-148 (0.99 nM) it was 88.3%; with CAL-51 (0.99 nM), 98.4%; in the test with CAL-85-1 (0.99 nM), 106%; with DU-4475 (0.99 nM), 105%. The normalised viability in the test on HCC1599 (9.9 nM) came to 108%; with HCC1937 (9.9 nM) it was 110%; with HDQ-P1 (0.99 nM), 140%; in the test with Hs578T (9.9 nM), 96%; in the test with MDA-MB-231 (9.9 nM), 103%; in the test with MDA-MB-436 (9.9 nM) it was 128%. The normalised viability with MDA-MB-453 (0.99 nM) and in the test with SK-BR-3 (9.9 nM) was 104% each time.

For `O=C(Nc1c[nH]nc1-c1nc2ccc(CN3CCOCC3)cc2[nH]1)NC1CC1` [AT9283], the normalised viability amounted to 112% with BT-474 (100 nM); 57.3% with CAL-120 (100 nM); 82.7% in the test on CAL-148 (10 nM); 100% in the test with CAL-51 (10 nM); 85.7% in the test with CAL-85-1 (10 nM); 97.5% in the test on DU-4475 (10 nM). In addition, the normalised viability in the test with HCC1599 (100 nM) was determined as 94.8%; in the test with HCC1937 (100 nM), 60.9%; with HDQ-P1 (10 nM), 112%; in the test on Hs578T (100 nM), 64.4%; in the test with MDA-MB-231 (100 nM), 75.2%; in the test with MDA-MB-436 (100 nM) it was 99%. Also, the normalised viability turned out to be 82.5% with MDA-MB-453 (10 nM) and 53% in the test with SK-BR-3 (100 nM).

As to `COc1cc(CCc2cc(NC(=O)c3ccc(N4CC(C)NC(C)C4)cc3)n[nH]2)cc(OC)c1` (stereo unspecified) [AZD4547], the normalised viability was 131% with BT-474 (10 nM); 94% with CAL-120 (10 nM); 97.5% in the test on CAL-148 (1 nM); 103% in the test with CAL-51 (1 nM); 101% in the test on CAL-85-1 (1 nM); 100% in the test with DU-4475 (1 nM). For the same compound, the normalised viability with HCC1599 (10 nM) was 83.7%; in the test with HCC1937 (10 nM), 91.8%; in the test with HDQ-P1 (1 nM), 112%; in the test on Hs578T (10 nM), 92.7%; with MDA-MB-231 (10 nM) it was 124%; in the test on MDA-MB-436 (10 nM), 102%. Also, the normalised viability came out at 107% in the test with MDA-MB-453 (1 nM) and 97.5% in the test with SK-BR-3 (10 nM).

Take `CCC/C=C/C=C/C(=O)O[C@H]1/C(=C/C(=O)OC)C[C@H]2C[C@H]([C@@H](C)O)OC(=O)C[C@H](O)C[C@@H]3C[C@H](OC(C)=O)C(C)(C)[C@](O)(C[C@@H]4C/C(=C/C(=O)OC)C[C@H](/C=C/C(C)(C)[C@]1(O)O2)O4)O3` [Bryostatin 1]: the normalised viability was 102% in the test with BT-474 (100 nM); 85.4% with CAL-120 (1 nM); 90.7% with CAL-148 (0.1 nM); 102% with CAL-51 (0.1 nM); 124% with CAL-85-1 (0.1 nM); 92.1% in the test with DU-4475 (0.1 nM). The normalised viability with HCC1599 (1 nM) was 110%; in the test on HCC1937 (100 nM), 103%; in the test on HDQ-P1 (0.1 nM) it was 106%; with Hs578T (1 nM), 63%; in the test with MDA-MB-231 (100 nM), 97.2%; with MDA-MB-436 (1 nM) it was 126%. The normalised viability came to 99% with MDA-MB-453 (0.1 nM) and 84.1% with SK-BR-3 (100 nM).

On to `CO[C@@H](C(=O)N1Cc2[nH]nc(NC(=O)c3ccc(N4CCN(C)CC4)cc3)c2C1)c1ccccc1` [Danusertib], for which the normalised viability with BT-474 (100 nM) was 80.8%; in the test with CAL-120 (100 nM), 64.8%; with CAL-148 (10 nM) it was 79.9%; with CAL-51 (10 nM) it was 105%; in the test on CAL-85-1 (10 nM), 93.6%; in the test on DU-4475 (10 nM), 91%. For the same compound, the normalised viability in the test with HCC1599 (100 nM) amounted to 77.2%; in the test with HCC1937 (100 nM) it was 99.9%; with HDQ-P1 (10 nM), 104%; with Hs578T (100 nM) it was 67.1%; in the test on MDA-MB-231 (100 nM), 79%; in the test on MDA-MB-436 (100 nM), 95.1%. Besides, the normalised viability with MDA-MB-453 (10 nM) came out at 79.6%; with SK-BR-3 (100 nM), 62.4%.

For `O=S(=O)(c1cccc2cnccc12)N1CCCNCC1` [Fasudil], the normalised viability was determined as 117% in the test on BT-474 (100 nM); 89.4% in the test with CAL-120 (100 nM); 93.1% in the test with CAL-148 (10 nM); 112% in the test on CAL-51 (10 nM); 97.7% in the test on CAL-85-1 (10 nM); 107% with DU-4475 (10 nM). Besides, the normalised viability stood at 100% in the test with HCC1599 (100 nM); 91.7% with HCC1937 (100 nM); 103% in the test on HDQ-P1 (10 nM); 97.5% in the test on Hs578T (100 nM); 96% with MDA-MB-231 (100 nM); 100% with MDA-MB-436 (100 nM). For the same compound, the normalised viability in the test on MDA-MB-453 (10 nM) was found to be 103%; in the test with SK-BR-3 (100 nM), 86.2%.

Turning to `Cc1c(CN2CCN(C(=O)[C@H](C)O)CC2)sc2c(N3CCOCC3)nc(-c3cnc(N)nc3)nc12` [GDC-0980], the normalised viability came out at 90.2% in the test with BT-474 (100 nM); 71.7% in the test on CAL-120 (100 nM); 96.2% in the test with CAL-148 (10 nM); 101% in the test with CAL-51 (10 nM); 100% in the test with CAL-85-1 (10 nM); 92.7% in the test on DU-4475 (10 nM). Besides, the normalised viability in the test with HCC1599 (100 nM) is 67.8%; with HCC1937 (100 nM) it was 76.7%; with HDQ-P1 (10 nM), 94%; in the test on Hs578T (100 nM), 82.2%; in the test on MDA-MB-231 (100 nM), 59.2%; in the test on MDA-MB-436 (100 nM) it was 85.6%. In addition, the normalised viability in the test with MDA-MB-453 (10 nM) amounted to 96.1%; in the test with SK-BR-3 (100 nM), 45.3%.

Take `Nc1cccc2c1CN(C1CCC(=O)NC1=O)C2=O` (stereo unspecified) [Lenalidomide]: the normalised viability with BT-474 (100 nM) is 115% and 94.3%; in the test on CAL-120 (100 nM) it was 71.4% and 84.9%; in the test with CAL-148 (10 nM), 88% and 92.2%; in the test on CAL-51 (10 nM), 106% and 104%; in the test on CAL-85-1 (10 nM), 88.2% and 90.5%; in the test with DU-4475 (10 nM) it was 103% and 112%. The normalised viability in the test with HCC1599 (100 nM) was 117% and 96.9%; in the test with HCC1937 (100 nM), 92.2% and 102%; in the test on HDQ-P1 (10 nM) it was 101% and 93.8%; with Hs578T (100 nM) it was 85.7% and 86.3%; in the test with MDA-MB-231 (100 nM) it was 88.9% and 87.4%; in the test with MDA-MB-436 (100 nM), 80% and 93.4%. For the same compound, the normalised viability was 93% and 103% in the test with MDA-MB-453 (10 nM); 73.6% and 88.2% in the test with SK-BR-3 (100 nM).
